Data reported in patent US8969516B2, “Method of hydrolysis of peptide bond” (priority 2006, dated 2015).

Assay: MALDI-TOF screening of Ni^2+ dependent hydrolysis in a combinatorial peptide library
Format: physicochemical
Settings: CH3CO-Gly-Ala-Thr-X-His-Z-Lys-Phe-Leu-NH2 library, Ni^2+ 2 mM, pH 8.2, 10 mM Tris, score=24/tm
In short: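 MALDI-TOF read-out: appearance of Ser/Thr-X-His-Z-Lys-Phe-Leu-NH2 product signals, plus loss of substrate signals, checked by eye at 2, 4, 6, 8 h. Conditions: 1 mM peptide mixture, 2 mM Ni2+, 10 mM Tris pH 8.2, 37 or 45 °C.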

Substance | hydrolysis score from MALDI-TOF screening (37° C.) | hydrolysis score from MALDI-TOF screening (45° C.)
Ac-GATSHMKFL-NH2 [TSHM] | 0 (a score of 0 if no trace of the product of hydrolysis was seen after 8 hours of incubation) | 0 (a score of 0 if no trace of the product of hydrolysis was seen after 8 hours of incubation)
Ac-GATSHNKFL-NH2 [TSHN] | 0 (a score of 0 if no trace of the product of hydrolysis was seen after 8 hours of incubation) | 0 (a score of 0 if no trace of the product of hydrolysis was seen after 8 hours of incubation)
Ac-GATSHPKFL-NH2 [TSHP] | 0 (a score of 0 if no trace of the product of hydrolysis was seen after 8 hours of incubation) | 0 (a score of 0 if no trace of the product of hydrolysis was seen after 8 hours of incubation)
Ac-GATSHQKFL-NH2 [TSHQ] | 0 (a score of 0 if no trace of the product of hydrolysis was seen after 8 hours of incubation) | 0 (a score of 0 if no trace of the product of hydrolysis was seen after 8 hours of incubation)
Ac-GATSHRKFL-NH2 [TSHR] | 0 (a score of 0 if no trace of the product of hydrolysis was seen after 8 hours of incubation) | 0 (a score of 0 if no trace of the product of hydrolysis was seen after 8 hours of incubation)
Ac-GATSHSKFL-NH2 [TSHS] | 0 (a score of 0 if no trace of the product of hydrolysis was seen after 8 hours of incubation) | 0 (a score of 0 if no trace of the product of hydrolysis was seen after 8 hours of incubation)
Ac-GATSHTKFL-NH2 [TSHT] | 0 (a score of 0 if no trace of the product of hydrolysis was seen after 8 hours of incubation) | 0 (a score of 0 if no trace of the product of hydrolysis was seen after 8 hours of incubation)
Ac-GATSHVKFL-NH2 [TSHV] | 0 (a score of 0 if no trace of the product of hydrolysis was seen after 8 hours of incubation) | 0 (a score of 0 if no trace of the product of hydrolysis was seen after 8 hours of incubation)
Ac-GATSHWKFL-NH2 [TSHW] | 0 (a score of 0 if no trace of the product of hydrolysis was seen after 8 hours of incubation) | 0 (a score of 0 if no trace of the product of hydrolysis was seen after 8 hours of incubation)
Ac-GATSHYKFL-NH2 [TSHY] | 0 (a score of 0 if no trace of the product of hydrolysis was seen after 8 hours of incubation) | 0 (a score of 0 if no trace of the product of hydrolysis was seen after 8 hours of incubation)
Ac-GATTHAKFL-NH2 [TTHA] | 0 (a score of 0 if no trace of the product of hydrolysis was seen after 8 hours of incubation) | 0 (a score of 0 if no trace of the product of hydrolysis was seen after 8 hours of incubation)
Ac-GATTHDKFL-NH2 [TTHD] | 0 (a score of 0 if no trace of the product of hydrolysis was seen after 8 hours of incubation) | 0 (a score of 0 if no trace of the product of hydrolysis was seen after 8 hours of incubation)
Ac-GATTHEKFL-NH2 [TTHE] | 0 (a score of 0 if no trace of the product of hydrolysis was seen after 8 hours of incubation) | 0 (a score of 0 if no trace of the product of hydrolysis was seen after 8 hours of incubation)
Ac-GATTHFKFL-NH2 [TTHF] | 0 (a score of 0 if no trace of the product of hydrolysis was seen after 8 hours of incubation) | 0 (a score of 0 if no trace of the product of hydrolysis was seen after 8 hours of incubation)
Ac-GATTHGKFL-NH2 [TTHG] | 0 (a score of 0 if no trace of the product of hydrolysis was seen after 8 hours of incubation) | 0 (a score of 0 if no trace of the product of hydrolysis was seen after 8 hours of incubation)
Ac-GATTHHKFL-NH2 [TTHH] | 0 (a score of 0 if no trace of the product of hydrolysis was seen after 8 hours of incubation) | 0 (a score of 0 if no trace of the product of hydrolysis was seen after 8 hours of incubation)
Ac-GATTHIKFL-NH2 [TTHI] | 0 (a score of 0 if no trace of the product of hydrolysis was seen after 8 hours of incubation) | 0 (a score of 0 if no trace of the product of hydrolysis was seen after 8 hours of incubation)
Ac-GATTHKKFL-NH2 [TTHK] | 0 (a score of 0 if no trace of the product of hydrolysis was seen after 8 hours of incubation) | 0 (a score of 0 if no trace of the product of hydrolysis was seen after 8 hours of incubation)
Ac-GATTHLKFL-NH2 [TTHL] | 0 (a score of 0 if no trace of the product of hydrolysis was seen after 8 hours of incubation) | 0 (a score of 0 if no trace of the product of hydrolysis was seen after 8 hours of incubation)
Ac-GATTHMKFL-NH2 [TTHM] | 0 (a score of 0 if no trace of the product of hydrolysis was seen after 8 hours of incubation) | 0 (a score of 0 if no trace of the product of hydrolysis was seen after 8 hours of incubation)
Ac-GATTHNKFL-NH2 [TTHN] | 0 (a score of 0 if no trace of the product of hydrolysis was seen after 8 hours of incubation) | 0 (a score of 0 if no trace of the product of hydrolysis was seen after 8 hours of incubation)
Ac-GATTHPKFL-NH2 [TTHP] | 0 (a score of 0 if no trace of the product of hydrolysis was seen after 8 hours of incubation) | 0 (a score of 0 if no trace of the product of hydrolysis was seen after 8 hours of incubation)
Ac-GATTHQKFL-NH2 [TTHQ] | 0 (a score of 0 if no trace of the product of hydrolysis was seen after 8 hours of incubation) | 0 (a score of 0 if no trace of the product of hydrolysis was seen after 8 hours of incubation)
Ac-GATTHRKFL-NH2 [TTHR] | 0 (a score of 0 if no trace of the product of hydrolysis was seen after 8 hours of incubation) | 3 (a score of 3 for detection at 8 hours)
Ac-GATTHSKFL-NH2 [TTHS] | 0 (a score of 0 if no trace of the product of hydrolysis was seen after 8 hours of incubation) | 0 (a score of 0 if no trace of the product of hydrolysis was seen after 8 hours of incubation)
Ac-GATTHTKFL-NH2 [TTHT] | 0 (a score of 0 if no trace of the product of hydrolysis was seen after 8 hours of incubation) | 0 (a score of 0 if no trace of the product of hydrolysis was seen after 8 hours of incubation)
Ac-GATTHVKFL-NH2 [TTHV] | 0 (a score of 0 if no trace of the product of hydrolysis was seen after 8 hours of incubation) | 0 (a score of 0 if no trace of the product of hydrolysis was seen after 8 hours of incubation)
